Measurements from patent publication US9211325B2, “Peptide adjuvants” (priority 2008, dated 2015).

Tests used:
Set-up in all cases: species or system BALB/c mice
Settings in all cases: mouse, in vivo
[1] = test system: homologous influenza virus isolate used for immunization (MDCK cells, CPE)
[2] = test system: Total anti-HBS antibodies
[3] = test system: Total anti-influenza IgG antibodies
[4] = test system: HA (peptide pools derived from HA)

## WHKCE (Short peptide sequence not known to occur in nature) [5mer2]
[1]
  Neutralizing antibody response, FIG. 2: did not cause a strong neutralizing antibody response

## free peptide (KWCEC; Short peptide sequence not known to occur in nature)
[2]
  Total anti-HBS antibodies (ELISA) response: strong response at both 6 and 8 weeks post immunization
[3]
  antibody response (ELISA) after fluviral vaccination: stronger response at both 6 and 8 weeks post immunization

## KYMCW (Short peptide sequence not known to occur in nature) [5mer7]
[1]
  Neutralizing antibody response, FIG. 2: caused a significant antibody response

## EHWCM (Short peptide sequence not known to occur in nature)
[4]
  T-cell response (ELISPOT), FIG. 18: generated a large T-cell response

## CKWRC (Short peptide sequence not known to occur in nature) [5mer3]
[1]
  Neutralizing antibody response, FIG. 2: did not cause a strong neutralizing antibody response

## CYYWC (Short peptide sequence not known to occur in nature)
[4]
  T-cell response (ELISPOT), FIG. 18: below the baseline of HA alone

## CHKWD (Short peptide sequence not known to occur in nature) [5mer1]
[1]
  Neutralizing antibody response, FIG. 2: did not cause a strong neutralizing antibody response

## KWCEC (Short peptide sequence not known to occur in nature) [5mer4]
[4]
  T cell response (ELISPOT) compared with other adjuvants, FIG. 16: stronger than that generated with alum alone and comparable to that generated by CpG
[1]
  Neutralizing antibody response, FIG. 2: caused a significant antibody response

## EMWCM (Short peptide sequence not known to occur in nature)
[4]
  T-cell response (ELISPOT), FIG. 18: did not

## CYWWW (Short peptide sequence not known to occur in nature)
[4]
  T-cell response (ELISPOT), FIG. 18: generated a significant T-cell response
